Reference: patent publication US4120864A, “1,2,4-4H-triazole derivatives” (Rohm and Haas Company, priority 1972, dated 1978)
Like-named read-outs stand apart in the source and are kept apart here.

Tests used:
[1] = tested on: wheat leaf rust, Puccinia recondita; test: whole plant or invertebrate; format: in vivo; settings: foliar; for pest or weed control at 280.212 g/ha: read-out: % Control (without rain), foliar, 0.25 lb.; for pest or weed control at 1120.85 g/ha: read-out: % Control (without rain), foliar, 1 lb.
[2] = tested on: wheat leaf rust, Puccinia recondita; test: whole plant or invertebrate; format: in vivo; settings: foliar; for pest or weed control at 280.212 g/ha: read-out: % Control (with 1" of rain), foliar, 0.25 lb., 1" of rain; for pest or weed control at 1120.85 g/ha: read-out: % Control (with 1" of rain), foliar, 1 lb., 1" of rain

Compound	pest or weed control at 280.212 g/ha [1]	pest or weed control at 1120.85 g/ha [1]	pest or weed control at 280.212 g/ha [2]	pest or weed control at 1120.85 g/ha [2]
CCCCn1c(S)nnc1-c1ccco1 [Example 91, 3-mercapto-4-n-butyl-5-(2-furyl)-1,2,4-triazole]	41%	72%	100%	100%
Cn1cnnc1S [Example 73, 3-mercapto-4-methyl-1,2,4-triazole]	34%	50%	0%	10%
C#CC(C)(C)n1cnnc1 [Example 16, 4-(1,1-dimethylpropargyl)-1,2,4-triazole]	0%	0%	0%	0%
O=C(O)CCn1cnnc1 [Example 41, 4-(2-carboxyethyl)-1,2,4-triazole]	85%	90%	0%	0%
c1nncn1C1CC1 [Example 2, 4-cyclopropyl-1,2,4-triazole]	90%	90%	40%	0%
CC(C)OCCCn1cnnc1 [Example 48, 4-(3-isopropoxypropyl)-1,2,4-triazole]	0%	0%	0%	0%
CCCCCCCCn1cnnc1S [Example 80, 3-mercapto-4-n-octyl-1,2,4-trizole]	100%	100%	51%	65%
Sc1nnc(-c2ccco2)n1-c1ccccc1 [Example 92, 3-mercapto-4-phenyl-5-(2-furyl)-1,2,4-triazole]	100%	81%	100%	87%
Clc1ccc(SCCn2cnnc2)cc1Cl [Example 31, 4-(2-(3,4-dichlorothiophenoxy)ethyl)-1,2,4-triazole]	95%	98%	45%	60%
c1nncn1CCCCn1cnnc1 [Example 37, 4-[4-(1,2,4-triazyl)butyl]-1,2,4-triazole]	0%	0%	5%	0%
CCOC(=O)CC(C)n1cnnc1 (stereo not drawn) [Example 40, 4-(1-methyl-2-ethoxycarbonylethyl)-1,2,4-triazole]	40%	40%	10%	10%
CCCCCCCCCCn1cnnc1S [Example 82, 3-mercapto-4-n-decyl-1,2,4-triazole]	61%	78%	46%	72%
Clc1ccc(OCCn2cnnc2)c(Cl)c1 [Example 29, 4-(2-(2,4-dichlorophenoxy)ethyl)-1,2,4-triazole]	0%	20%	0%	0%
c1cc(-n2cnnc2)ccn1 [Example 61, 4-(4-pyridyl)-1,2,4-triazole]	10%	10%	0%	0%
Cn1c(S)nnc1C(=O)O [Example 93, 3-mercapto-4-methyl-5-carboxy-1,2,4-triazole]	65%	94%	0%	0%
c1nc(-n2cnnc2)n[nH]1 [Example 66, 4-(3-(1,2,4-triazy)-1,2,4-triazole]	100%	100%	99%	
COC(=O)c1nnc(S)n1C [Example 96, 3-mercapto-4-methyl-5-methoxycarbonyl-1,2,4-triazole]	90%	98%	0%	5%
CCCCn1c(O)nnc1S [Example 87, 3-mercapto-4-n-butyl-5-hydroxy-1,2,4-triazole]	15%	49%	0%	0%
CCCCn1cnnc1SCCOc1ccccc1 [Example 109, 3-(2-phenoxyethylmercapto)-4-n-butyl-1,2,4-triazole]	100%	100%	96%	100%
